Data reported in US20250122222A1, “HETEROCYCLIC COMPOUNDS AND METHODS OF USE” (AMGEN INC., priority 2021, published 2025).
Where two headings read alike, the source gives them in different places.

Assays:
[1] = target: His-tagged KRAS G12D protein (Homo sapiens, UniProt P01116, G12D); test: KRAS G12D TR-FRET assay (binding); conditions: biotinylated KRPep-2d substrate, GDP in assay buffer
[2] = tested on: Phosphorylation of ERK1/2 in AsPC-1 cells; test: Phospho-ERK1/2 MSD assay; type: cell-based
Method: Sixteen hours prior to compound treatment, AsPC-1 cells were seeded in 96-well cell culture plates at a density of 25,000 cells/well and incubated at 37° C., 5% CO2. A compound dose-response titration was diluted in growth media, added to appropriate wells of a cell culture plate, and then incubated at 37° C., 5% CO2 for 2 hours.

[3] = Homo sapiens, ASPC1, read-out: 2 h p-ERK (AsPC-1 cells), IC50 (μM), 2 hours compound treatment

Chain of His-tagged KRAS G12D protein (P01116 1-188 isoform P01116-2 G12D): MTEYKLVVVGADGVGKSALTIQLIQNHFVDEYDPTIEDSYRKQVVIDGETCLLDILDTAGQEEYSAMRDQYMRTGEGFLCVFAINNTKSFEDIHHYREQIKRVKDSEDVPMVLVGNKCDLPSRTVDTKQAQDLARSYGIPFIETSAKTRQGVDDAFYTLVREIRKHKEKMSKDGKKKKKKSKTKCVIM

| IC50 [1] [µM] | IC50 [2, 3] [µM] | Structure (SMILES) | IC50 ([2]; read-out: 2 h p-ERK (AsPC-1 cells), IC50, 2 hours compound treatment) [µM] |
| --- | --- | --- | --- |
| 0.079 | 1.77 | CCc1c(F)ccc2cc(O)cc(-c3ncc4c(N5C[C@@H]6CC[C@@H]5CO6)nc(OC[C@@]56CCCN5C[C@H](F)C6)nc4c3F)c12 [Example 28, 4-(4-((1S,4R)-2-Oxa-5-azabicyclo[2.2.2]octan-5-yl)-8-fluoro-2-(((2R,7aS)-2-fluorotetrahydro-1H-pyrrolizin-7a(5H)-yl)methoxy)pyrido [4,3-d]pyrimidin-7-yl)-5-ethyl-6-fluoronaphthalen-2-ol] | – |
| 0.013 | 0.966 | CCc1cccc2cc(O)cc(-c3ncc4c(N5CCCOCC5)nc(OC[C@@H]5C[C@@H](F)CN5C)nc4c3F)c12 [Example 32, 5-Ethyl-4-(8-fluoro-2-(((2S,4R)-4-fluoro-1-methylpyrrolidin-2-yl)methoxy)-4-(1,4-oxazepan-4-yl)pyrido[4,3-d]pyrimidin-7-yl)naphthalen-2-ol] | – |
| 0.001 | 0.393 | CCc1c(F)ccc2cc(O)cc(-c3ncc4c(N5CC[S+]([O-])CC5)nc(OC[C@@]56CCCN5C[C@H](F)C6)nc4c3F)c12 [Example 34, 4-(7-(8-Ethyl-7-fluoro-3-hydroxynaphthalen-1-yl)-8-fluoro-2-(((2R,7aS)-2-fluorotetrahydro-1H-pyrrolizin-7a(5H)-yl)methoxy)pyrido[4,3-d]pyrimidin-4-yl)thiomorpholine 1-oxide] | – |
| 0.057 | > 10 | CCc1c(F)ccc2cc(O)cc(-c3ncc4c(N5CCS(=N)(=O)CC5)nc(OC[C@@]56CCCN5C[C@H](F)C6)nc4c3F)c12 [Example 35, 4-(7-(8-Ethyl-7-fluoro-3-hydroxynaphthalen-1-yl)-8-fluoro-2-(((2R,7aS)-2-fluorotetrahydro-1H-pyrrolizin-7a(5H)-yl)methoxy)pyrido[4,3-d]pyrimidin-4-yl)-1-imino-1 λ^6-thiomorpholine 1-oxide] | – |
| 0.001 | 0.651 | CCc1c(F)ccc2cc(O)cc(-c3ncc4c(N5CCC[S+]([O-])CC5)nc(OC[C@@]56CCCN5C[C@H](F)C6)nc4c3F)c12 (stereo partly drawn) [Example 36, 4-(7-(8-Ethyl-7-fluoro-3-hydroxynaphthalen-1-yl)-8-fluoro-2-(((2R,7aS)-2-fluorotetrahydro-1H-pyrrolizin-7a(5H)-yl)methoxy)pyrido[4,3-d]pyrimidin-4-yl)-1,4-thiazepane 1-oxide] | – |
| 0.011 | 2.66 | CCc1c(F)ccc2cc(O)cc(-c3ncc4c(N5CCCS(=O)(=O)CC5)nc(OC[C@@]56CCCN5C[C@H](F)C6)nc4c3F)c12 [Example 37, 4-(7-(8-Ethyl-7-fluoro-3-hydroxynaphthalen-1-yl)-8-fluoro-2-(((2R,7aS)-2-fluorotetrahydro-1H-pyrrolizin-7a(5H)-yl)methoxy)pyrido[4,3-d]pyrimidin-4-yl)-1,4-thiazepane 1,1-dioxide] | – |
| 0.021 | > 10 | CCc1c(F)ccc2cc(O)cc(-c3ncc4c(N5CCCS(=N)(=O)CC5)nc(OC[C@@]56CCCN5C[C@H](F)C6)nc4c3F)c12 (stereo partly drawn) [Example 38, 4-(7-(8-Ethyl-7-fluoro-3-hydroxynaphthalen-1-yl)-8-fluoro-2-(((2R,7aS)-2-fluorotetrahydro-1H-pyrrolizin-7a(5H)-yl)methoxy)pyrido[4,3-d]pyrimidin-4-yl)-1-imino-1 λ^6,4-thiazepane 1-oxide] | – |
| 0.005 | 0.171 | CCc1c(F)ccc2cc(O)cc(-c3ncc4c(N5CCOC[C@@H](OC)C5)nc(OC[C@@]56CCCN5C[C@H](F)C6)nc4c3F)c12 [Example 39, 5-Ethyl-6-fluoro-4-(8-fluoro-2-(((2R,7aS)-2-fluorotetrahydro-1H-pyrrolizin-7a(5H)-yl)methoxy)-4-((S)-6-methoxy-1,4-oxazepan-4-yl)pyrido[4,3-d]pyrimidin-7-yl)naphthalen-2-ol] | – |
| 0.006 | 6.23 | CCc1c(F)ccc2cc(O)cc(-c3ncc4c(N5CCCOC(C(N)=O)C5)nc(OC[C@@]56CCCN5C[C@H](F)C6)nc4c3F)c12 (stereo partly drawn) [Example 51, 4-(7-(8-Ethyl-7-fluoro-3-hydroxy-naphthalen-1-yl)-8-fluoro-2-(((2R, 7aS)-2-fluorotetra-hydro-1H-pyrrol-zin-7a(5H)-yl)-methoxy)pyrido [4,3-d]pyrimidin-4-yl)-1,4-oxazepane-2-carboxamide] | – |
| 0.033 | 1.28 | CCc1c(F)ccc2cc(O)cc(-c3ncc4c(N5CCO[C@H](C)C5)nc(OC[C@@]56CCCN5C[C@H](F)C6)nc4c3F)c12 [Example 52, 5-Ethyl-6-fluoro-4-(8-fluoro-2-(((2R,7aS)-2-fluorotetrahydro-1H-pyrrolizin-7a(5H)-yl)meth-oxy)-4-((R)-2-methylmorpho-lino)-pyrido[4,3-d]pyrimidin-7-yl)-naphthalen-2-ol] | – |
| 0.039 | 1.24 | CCc1c(F)ccc2cc(O)cc(-c3ncc4c(N5CCO[C@@H](COC)C5)nc(OC[C@@]56CCCN5C[C@H](F)C6)nc4c3F)c12 [Example 53, 5-Ethyl-6-fluoro-4-(8-fluoro-2-(((2R, 7aS)-2-fluorotetra-hydro-1H-pyrrol-izin-7a(5H)-yl)-methoxy)-4-((R)-2-(methoxymeth-yl)morpholino)pyr-ido[4,3-d]pyrimi-din-7-yl)naph-thalen-2-ol] | – |
| 0.003 | 0.081 | CCc1c(F)ccc2cc(O)cc(-c3ncc4c(N5CCCOC(CO)C5)nc(OC[C@@]56CCCN5C[C@H](F)C6)nc4c3F)c12 (stereo partly drawn) [Example 56, 5-Ethyl-6-fluoro-4-(8-fluoro-2-(((2R, 7aS)-2-fluorotetra-hydro-1H-pyrrol-izin-7a(5H)-yl)-methoxy)-4-(2-(hydroxymethyl)-1,4-oxazepan-4-yl)pyrido[4,3-d]pyrimidin-7-yl)-naphthalen-2-ol] | – |
| 0.013 | 5.95 | CCc1c(F)ccc2cc(O)cc(-c3ncc4c(N5CCOC(CO)CC5)nc(OC[C@@]56CCCN5C[C@H](F)C6)nc4c3F)c12 (stereo partly drawn) [Example 57, 5-Ethyl-6-fluoro-4-(8-fluoro-2-(((2R, 7aS)-2-fluorotetra-hydro-1H-pyrrolizin-7a(5H)-yl)methoxy)-4-(7-(hydroxymeth-yl)-1,4-oxazepan-4-yl)pyrido[4,3-d]pyrimidin-7-yl)-naphthalen-2-ol] | – |
| 0.014 | 3.63 | CCc1c(F)ccc2cc(O)cc(-c3ncc4c(N5CC6CC5CS6(=O)=O)nc(OC[C@@]56CCCN5C[C@H](F)C6)nc4c3F)c12 (stereo partly drawn) [Example 59, 5-(7-(8-Ethyl-7-fluoro-3-hydroxy-naphthalen-1-yl)-8-fluoro-2-(((2R,7aS)-2-fluorotetrahydro-1H-pyrrolizin-7a(5H)-yl)meth-oxy)pyrido[4,3-d]pyrimidin-4-yl)-2-thia-5-azabicyclo [2.2.1]heptane 2,2-dioxide] | – |
| 0.003 | 0.193 | CCc1c(F)ccc2cc(O)cc(-c3ncc4c(N5CCOCC(C#N)C5)nc(OC[C@@]56CCCN5C[C@H](F)C6)nc4c3F)c12 (stereo partly drawn) [Example 61, 4-(7-(8-Ethyl-7-fluoro-3-hydroxy-naphthalen-1-yl)-8-fluoro-2-(((2R,7aS)-2-fluorotetrahydro-1H-pyrrolizin-7a(5H)-yl)meth-oxy)-pyrido[4,3-d]pyrimidin-4-yl)-1,4-oxazepane-6-carbonitrile] | – |
| 0.001 | 0.07 | CCc1c(F)ccc2cc(O)cc(-c3ncc4c(N5CCCS(=O)(=O)C5)nc(OC[C@@]56CCCN5C[C@H](F)C6)nc4c3F)c12 [Example 62, 3-(7-(8-Ethyl-7-fluoro-3-hydroxy-naphthalen-1-yl)-8-fluoro-2-(((2R,7aS)-2-fluorotetrahydro-1H-pyrrolizin-7a(5H)-yl)meth-oxy)pyrido[4,3-d]pyrimidin-4-yl)-1,3-thiazinane 1,1-dioxide] | – |
| 0.005 | 1.38 | CCc1c(F)ccc2cc(O)cc(-c3ncc4c(N5CCOCC(S(N)(=O)=O)C5)nc(OC[C@@]56CCCN5C[C@H](F)C6)nc4c3F)c12 (stereo partly drawn) [Example 63, 4-(7-(8-Ethyl-7-fluoro-3-hydroxy-naphthalen-1-yl)-8-fluoro-2-(((2R,7aS)-2-fluorotetrahydro-1H-pyrrolizin-7a(5H)-yl)meth-oxy)pyrido[4,3-d]pyrimidin-4-yl)-1,4-oxazepane-6-sulfonamide] | – |
| 0.015 | 0.592 | CCc1c(F)ccc2cc(O)cc(-c3ncc4c(N5CCOC6CC65)nc(OC[C@@]56CCCN5C[C@H](F)C6)nc4c3F)c12 (stereo partly drawn) [Example 66, 4-(4-((1R,6S)-2-oxa-5-azabicyclo[4.1.0]heptan-5-yl)-8-fluoro-2-(((2R,7aS)-2-fluorotetrahydro-1H-pyrrolizin-7a(5H)-yl)methoxy)-pyrido[4,3-d]pyrim-idin-7-yl)-5-ethyl-6-fluoronaphthalen-2-ol] | – |
| 0.002 | 0.072 | CCc1c(F)ccc2cc(O)cc(-c3ncc4c(N5CCOCC(=O)C5)nc(OCC56CCCN5CC(F)C6)nc4c3F)c12 [Example 67, 4-(7-(8-ethyl-7-fluoro-3-hydroxy-naphthalen-1-yl)-8-fluoro-2-(((2R,7aS)-2-fluorotetrahydro-1H-pyrrolizin-7a(5H)-yl)methoxy)-pyrido[4,3-d]pyrim-idin-4-yl)-1,4-oxazepan-6-one] | – |

| Structure (SMILES) | IC50 [1] [µM] | IC50 [2, 3] [µM] | IC50 ([2]; read-out: 2 h p-ERK (AsPC-1 cells), IC50, 2 hours compound treatment) [µM] |
| --- | --- | --- | --- |
| CCc1c(F)ccc2cc(O)cc(-c3ncc4c(N5CCOC[C@H](CO)C5)nc(OC[C@@]56CCCN5C[C@H](F)C6)nc4c3F)c12 [Example 49, 5-Ethyl-6-fluoro-4-(8-fluoro-2-(((2R, 7aS)-2-fluorotetra-hydro-1H-pyrrol-izin-7a(5H)-yl)-methoxy)-4-((S)-6-(hydroxymethyl)-1,4-oxazepan-4-yl)-pyrido[4,3-d]pyr-imidin-7-yl)naph-thalen-2-ol] | 0.013 | – | 0.889 |
